{
  "source": "PubChem BioAssay (NCI)",
  "assay_in_all_cases": "DTP human tumour cell line panel, 48 h",
  "key": {"[1]": {"tested_on": "U251 CNS"}, "[2]": {"tested_on": "MCF7 breast"}, "[3]": {"tested_on": "A549 NSCLC"}, "[4]": {"tested_on": "IGROV1 ovarian"}, "[5]": {"tested_on": "OVCAR-4 ovarian"}, "[6]": {"tested_on": "SW-620 colon"}, "[7]": {"tested_on": "SF-268 CNS"}, "[8]": {"tested_on": "SNB-75 CNS"}, "[9]": {"tested_on": "UO-31 renal"}, "[10]": {"tested_on": "SF-295 CNS"}, "[11]": {"tested_on": "LOX IMVI melanoma"}, "[12]": {"tested_on": "MALME-3M melanoma"}, "[13]": {"tested_on": "HOP-92 NSCLC"}, "[14]": {"tested_on": "MOLT-4 leukemia"}, "[15]": {"tested_on": "COLO 205 colon"}, "[16]": {"tested_on": "CAKI-1 renal"}, "[17]": {"tested_on": "BT-549 breast"}, "[18]": {"tested_on": "MDA-N"}, "[19]": {"tested_on": "CCRF-CEM leukemia"}},
  "note": "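1) Cells in 96-well plates. 2) Compound, 48 h, 5 concentrations. 3) Linear interpolation between surrounding doses. 4) Unreached endpoint = highest concentration. The concentration for full growth arrest is given as TGI.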",
  "data": [
    {"compound": "CCOC(=O)[C@@]1(C(C)=O)CC(C)=C(C)C[S@]1=O", "values": [
      {"measurement": "TGI", "setting": "[1]", "value": "> 100", "unit": "µM"},
      {"measurement": "TGI", "setting": "[2]", "value": "> 100", "unit": "µM"},
      {"measurement": "TGI", "setting": "[3]", "value": "> 100", "unit": "µM"},
      {"measurement": "TGI", "setting": "[4]", "value": "> 100", "unit": "µM"},
      {"measurement": "TGI", "setting": "[5]", "value": "> 100", "unit": "µM"},
      {"measurement": "TGI", "setting": "[6]", "value": "> 100", "unit": "µM"},
      {"measurement": "TGI", "setting": "[7]", "value": "> 100", "unit": "µM"},
      {"measurement": "TGI", "setting": "[8]", "value": "> 100", "unit": "µM"},
      {"measurement": "TGI", "setting": "[9]", "value": "> 100", "unit": "µM"},
      {"measurement": "TGI", "setting": "[10]", "value": "> 100", "unit": "µM"},
      {"measurement": "TGI", "setting": "[11]", "value": "> 100", "unit": "µM"},
      {"measurement": "TGI", "setting": "[12]", "value": "> 100", "unit": "µM"},
      {"measurement": "TGI", "setting": "[13]", "value": "> 100", "unit": "µM"},
      {"measurement": "TGI", "setting": "[14]", "value": "> 100", "unit": "µM"},
      {"measurement": "TGI", "setting": "[15]", "value": "> 100", "unit": "µM"},
      {"measurement": "TGI", "setting": "[16]", "value": "> 100", "unit": "µM"},
      {"measurement": "TGI", "setting": "[17]", "value": "> 100", "unit": "µM"},
      {"measurement": "TGI", "setting": "[18]", "value": "> 100", "unit": "µM"}
    ]},
    {"compound": "CC(C)C1=CC2=CC[C@@H]3[C@](C)(CCC[C@@]3(C)C(=O)O)[C@H]2CC1", "values": [
      {"measurement": "TGI", "setting": "[1]", "value": "> 100", "unit": "µM"},
      {"measurement": "TGI", "setting": "[3]", "value": "> 100", "unit": "µM"},
      {"measurement": "TGI", "setting": "[4]", "value": "> 100", "unit": "µM"},
      {"measurement": "TGI", "setting": "[5]", "value": "> 100", "unit": "µM"},
      {"measurement": "TGI", "setting": "[6]", "value": "> 100", "unit": "µM"},
      {"measurement": "TGI", "setting": "[7]", "value": "> 100", "unit": "µM"},
      {"measurement": "TGI", "setting": "[8]", "value": "> 100", "unit": "µM"},
      {"measurement": "TGI", "setting": "[9]", "value": "> 82.7", "unit": "µM"},
      {"measurement": "TGI", "setting": "[10]", "value": "> 100", "unit": "µM"},
      {"measurement": "TGI", "setting": "[11]", "value": "> 100", "unit": "µM"},
      {"measurement": "TGI", "setting": "[12]", "value": "> 100", "unit": "µM"},
      {"measurement": "TGI", "setting": "[13]", "value": "> 84.6", "unit": "µM"},
      {"measurement": "TGI", "setting": "[19]", "value": "> 100", "unit": "µM"},
      {"measurement": "TGI", "setting": "[14]", "value": "> 75.7", "unit": "µM"},
      {"measurement": "TGI", "setting": "[15]", "value": 71.9, "unit": "µM"},
      {"measurement": "TGI", "setting": "[16]", "value": "> 100", "unit": "µM"}
    ]},
    {"compound": "CN(CCNC(=O)c1nn(-c2ccc(Cl)cc2Cl)c2c1Cc1ccccc1-2)CCNC(=O)c1nn(-c2ccc(Cl)cc2Cl)c2c1Cc1ccccc1-2", "values": [
      {"measurement": "TGI", "setting": "[1]", "value": 7.27, "unit": "µM"},
      {"measurement": "TGI", "setting": "[2]", "value": 8.31, "unit": "µM"},
      {"measurement": "TGI", "setting": "[3]", "value": 28.8, "unit": "µM"},
      {"measurement": "TGI", "setting": "[4]", "value": "> 100", "unit": "µM"},
      {"measurement": "TGI", "setting": "[5]", "value": "> 20", "unit": "µM"},
      {"measurement": "TGI", "setting": "[6]", "value": 4.88, "unit": "µM"},
      {"measurement": "TGI", "setting": "[7]", "value": "> 100", "unit": "µM"},
      {"measurement": "TGI", "setting": "[8]", "value": "> 48.2", "unit": "µM"},
      {"measurement": "TGI", "setting": "[9]", "value": 7.81, "unit": "µM"},
      {"measurement": "TGI", "setting": "[10]", "value": 5.19, "unit": "µM"},
      {"measurement": "TGI", "setting": "[12]", "value": 3.42, "unit": "µM"},
      {"measurement": "TGI", "setting": "[13]", "value": 4.88, "unit": "µM"},
      {"measurement": "TGI", "setting": "[19]", "value": 7.82, "unit": "µM"},
      {"measurement": "TGI", "setting": "[14]", "value": 6.81, "unit": "µM"},
      {"measurement": "TGI", "setting": "[15]", "value": 3.43, "unit": "µM"},
      {"measurement": "TGI", "setting": "[16]", "value": "> 47.4", "unit": "µM"},
      {"measurement": "TGI", "setting": "[17]", "value": 38.2, "unit": "µM"},
      {"measurement": "TGI", "setting": "[18]", "value": 4.89, "unit": "µM"}
    ]},
    {"compound": "CC1=C[C@H]([C@H]2C=C(C)C(C(N)=O)=CN2Cc2c(Cl)cccc2Cl)N(Cc2c(Cl)cccc2Cl)C=C1C(N)=O", "values": [
      {"measurement": "TGI", "setting": "[1]", "value": "> 75", "unit": "µM"},
      {"measurement": "TGI", "setting": "[2]", "value": "> 75", "unit": "µM"},
      {"measurement": "TGI", "setting": "[3]", "value": "> 75", "unit": "µM"},
      {"measurement": "TGI", "setting": "[5]", "value": "> 75", "unit": "µM"},
      {"measurement": "TGI", "setting": "[6]", "value": "> 75", "unit": "µM"},
      {"measurement": "TGI", "setting": "[7]", "value": "> 75", "unit": "µM"},
      {"measurement": "TGI", "setting": "[9]", "value": "> 75", "unit": "µM"},
      {"measurement": "TGI", "setting": "[10]", "value": "> 75", "unit": "µM"},
      {"measurement": "TGI", "setting": "[11]", "value": "> 75", "unit": "µM"},
      {"measurement": "TGI", "setting": "[12]", "value": "> 75", "unit": "µM"},
      {"measurement": "TGI", "setting": "[13]", "value": 65.8, "unit": "µM"},
      {"measurement": "TGI", "setting": "[19]", "value": "> 75", "unit": "µM"},
      {"measurement": "TGI", "setting": "[14]", "value": "> 75", "unit": "µM"},
      {"measurement": "TGI", "setting": "[15]", "value": "> 75", "unit": "µM"},
      {"measurement": "TGI", "setting": "[16]", "value": "> 75", "unit": "µM"},
      {"measurement": "TGI", "setting": "[17]", "value": "> 75", "unit": "µM"},
      {"measurement": "TGI", "setting": "[18]", "value": "> 75", "unit": "µM"}
    ]},
    {"compound": "O=C1NC(=O)C(C(c2ccc([N+](=O)[O-])cc2)C2C(=O)NC(=O)NC2=O)C(=O)N1", "values": [
      {"measurement": "TGI", "setting": "[1]", "value": "> 100", "unit": "µM"},
      {"measurement": "TGI", "setting": "[2]", "value": "> 100", "unit": "µM"},
      {"measurement": "TGI", "setting": "[3]", "value": "> 100", "unit": "µM"},
      {"measurement": "TGI", "setting": "[4]", "value": "> 100", "unit": "µM"},
      {"measurement": "TGI", "setting": "[5]", "value": "> 100", "unit": "µM"},
      {"measurement": "TGI", "setting": "[6]", "value": "> 100", "unit": "µM"},
      {"measurement": "TGI", "setting": "[7]", "value": "> 100", "unit": "µM"},
      {"measurement": "TGI", "setting": "[9]", "value": "> 100", "unit": "µM"},
      {"measurement": "TGI", "setting": "[10]", "value": "> 100", "unit": "µM"},
      {"measurement": "TGI", "setting": "[11]", "value": "> 100", "unit": "µM"},
      {"measurement": "TGI", "setting": "[12]", "value": "> 100", "unit": "µM"},
      {"measurement": "TGI", "setting": "[13]", "value": "> 100", "unit": "µM"},
      {"measurement": "TGI", "setting": "[19]", "value": "> 100", "unit": "µM"},
      {"measurement": "TGI", "setting": "[14]", "value": "> 100", "unit": "µM"},
      {"measurement": "TGI", "setting": "[15]", "value": "> 100", "unit": "µM"},
      {"measurement": "TGI", "setting": "[16]", "value": "> 100", "unit": "µM"},
      {"measurement": "TGI", "setting": "[17]", "value": "> 100", "unit": "µM"},
      {"measurement": "TGI", "setting": "[18]", "value": "> 100", "unit": "µM"}
    ]}
  ]
}
